These results are taken from US20070010498A1, “Method for reducing blood loss associated with cardio-pulmonary bypass surgery” (priority 2005, published 2007).

This data set in a line: plasma concentrations of COL-3 in humans. In kind it is in vivo. The following applies: dose of about 10 to about 20 mg/day.

Take `NC(=O)C1=C(O)C[C@@H]2C[C@@H]3Cc4cccc(O)c4C(=O)C3=C(O)[C@]2(O)C1=O` [COL-3, 6-demethyl-6-deoxy-4-de(dimethylamino)tetracycline]: the plasma concentrations result is listed as “about 1.0 μg/ml”.
